Data from paper PMC12250170, “Synthesis of Novel Podophyllotoxin–Benzothiazole Congeners and Their Biological Evaluation as Anticancer Agents” (International Journal of Molecular Sciences, 2025).
Read-outs that look alike come from different tables or passages of the source.

Columns and labels:
[1] = system: MCF-7 (breast cancer) cells; assay: In vitro cytotoxicity, crystal violet assay, MCF-7; format: cell-based, human
Description: (§1) The synthesized compounds were tested and evaluated for their cytotoxicity using an in vitro cytotoxicity assay. We studied five cancer cell lines and one non-cancerous cell line. The cells were purchased from the American Type Culture Collection (ATCC), United States, including HeLa (cervical), LoVo (colorectal), MCF-7 (breast), SKOV3 (ovarian), B16F10 (murine melanoma), and HaCaT (human keratinocyte). Dulbecco’s modified Eagle’s medium (containing 10% FBS) was used to culture HeLa, MCF-7, B16F10, and HaCaT cells, while RPMI 1640 medium (containing 10% FBS) was used for SKOV3 and LoVo cells. The cells were cultured in 25 cm^2 culture flasks (Corning, Corning, NY, USA) in a humidified atmosphere of 5% CO2 at 37 °C and passaged every three days with standard Trypsin-EDTA solution (Gibco, Thermo Fisher Scientific, Waltham, MA, USA). All compounds were initially prepared as stock solutions at a concentration of 10 mM (in DMSO). Serial dilutions were performed in the indicated medium to achieve the required concentration gradient of compounds (20 µM, 10 µM, 5 µM, 2.5 µM, 1.25 µM, 0.625 µM, 0.312 µM). The maximum percentage of DMSO used in the compound solutions was 0.1%, based on the procedure previously described by our group.
(§2) This assay was performed in reference to the method already described. In brief, the cell lines (HeLa, MCF-7, and SKOV-3) were seeded in the indicated medium in a 96-well culture plate (Nest Biotechnology, Wuxi, China) at a density of 1 × 10^4 cells per well (100 µL) in quadruplicates and then incubated at 37 °C in a 5% CO2 atmosphere. After 24 h of incubation, 100 µL aliquots of the compounds in medium at increasing concentrations were added to each well, and the cells were further incubated for 48 h. After the incubation period, the cells were washed with PBS twice, and then with 70% ethanol, followed by staining with 0.05% crystal violet solution in water (ChemPur, Piekary Slaskie, Poland) for 20 min. The excess crystal violet was washed out with distilled water several times. The stained cells then solubilized in 1% Triton™ X-100 Surfact-Amps (POCH SA, Gliwice, Poland) or 10% PBS. The absorbance of each well was measured using Fluostar plate reader at […].
(§3) Data analysis was carried out using GraphPad Prism 5.0.3. Calculations were performed using MS-Excel version 2021. The cytotoxic effect was expressed as the relative viability of treated cells (percentage growth control) and was calculated as follows: % relative viability = Ae−Ab/Ac−Ab×100% , where Ae is experimental absorbance/fluorescence intensity, Ac is the absorbance/ fluorescence intensity of growth control (only cells with medium), and Ab is the absorbance/fluorescence intensity of a blank (only medium). The IC50 values were obtained by using the sigmoidal dose–response function in GraphPad Prism. The results were expressed as mean ± standard deviation (SD).

[2] = system: LoVo (colorectal cancer) cells; assay: In vitro cytotoxicity, PrestoBlue assay, LoVo; format: cell-based, human; conditions: 48 h, read-out: IC50 ± SD, LoVo
Description: as §1
(§4) The PrestoBlue assay was performed according to the method previously reported by Strus et al.. The cells (LoVo and B16F10) were seeded in the indicated medium in a 96-well culture plate (Nest Biotechnology) at a density of 1 × 10^4 cells per well (100 µL) and incubated at 37 °C in a 5% CO2 atmosphere. After 24 h of incubation, 100 µL aliquots of the compounds in medium were added to each well, and the cells were further incubated for 48 h. After 48 h, the old medium was removed, and 100 µL of fresh medium was added. Then, 10 µL of PrestoBlue solution (Thermo Fisher Scientific, Waltham, MA, USA) was added to each well and incubated for 60 min. The fluorescence intensity was measured with excitation at 544 nm and emission at 615 nm using a Fluorstar microplate reader (BMG Labtech, Ortenberg, Germany). The results were expressed as a percentage of the intensity relative to that of control cells (non-treated cells).
as §3

[3] = system: B16F10 (murine melanoma) cells; assay: In vitro cytotoxicity, PrestoBlue assay, B16F10; format: cell-based; conditions: read-out: IC50 ± SD, B16F10
Description: as §1, §4, §3

[4] = system: HaCaT (human keratinocyte) cells; assay: In vitro cytotoxicity, PrestoBlue assay, HaCaT (non-tumorigenic); format: cell-based; conditions: 48 h, read-out: IC50 ± SD, HaCaT
[5] = system: SKOV-3 (ovarian cancer) cells; assay: In vitro cytotoxicity, crystal violet assay, SKOV-3; format: cell-based, human
Description: as §1, §2, §3

[6] = system: HeLa (cervix cancer) cells; assay: In vitro cytotoxicity, crystal violet assay, HeLa; format: cell-based, human
Description: as §1, §2, §3

HeLa cells = assay: Cell cycle analysis by flow cytometry (propidium iodide); format: cell-based, human
Description: To determine the possible mechanisms of compounds 7 and 11 in inhibiting the proliferation of cancer cells, cell cycle analysis was performed with the flow cytometry method, as shown in Figure 3. Compound 7 was previously reported to inhibit proliferation of HaCaT cells via cell cycle arrest in G2/M [18]. As a reference, HeLa cells were treated with the indicated concentrations of compounds 7 and 11 for 24 h and 48 h, and the cell cycle phases distribution of treated cells was determined with the propidium iodide (PI) method, as previously described. The effects of novel podophyllotoxin derivatives on cell cycle phase distribution were evaluated in cells exposed to these compounds for 24 h or 48 h. Three compounds were compared: podophyllotoxin 1, KL-3 derivative 7, and its analog lacking the ester group 11.
For cell cycle analysis, HeLa cells were treated for 24 or 48 h with compounds 7 and 11 at concentrations of 5 µM and 10 µM. After the incubation period, the cells were fixed in a freezing medium (ice-cold 70% ethanol solution in PBS) and stored at −20 °C. The cell suspension was then centrifuged, washed with PBS, and resuspended in PBS containing 200 µg of DNase-free RNase A (Sigma) for 20 min at room temperature. Propidium iodide (Sigma) was added to a final concentration of 5 µg/mL, and the cells were stained for at least 2 h at 4 °C. The analysis was performed using a FACSCalibur flow cytometer (Becton Dickinson, San Diego, CA, USA) and analyzed with CellQuest software, v.3.3.

[7] = system: cancer cell lines (MCF-7, SKOV-3, B16F10, LOVO, and HeLa) and HaCaT; assay: In vitro cytotoxicity assay, results summarised over the cell line panel; format: cell-based; conditions: for Cytotoxicity in words: all tested cell lines
Description: The cytotoxicity properties of semi-synthesized compounds 7–15 was evaluated against five types of cancer cell lines including, human: HeLa (cervix cancer), LoVo (colorectal cancer), MCF-7 (breast cancer), SKOV-3 (ovarian cancer), and murine: B16F10 (malignant melanoma). Thus, various human tumor cell lines representing major types of malignant cancers were included in the study protocol. Non-tumorigenic HaCaT cells were used as a representative model of normal (non-cancerous) cells. The crystal violet assay and PrestoBlue assay were used to evaluate the cytotoxic/cytostatic effect. We also included the cytotoxicity data of podophyllotoxin and etoposide as reference values.
as §1, §2, §4
Data analysis was carried out using GraphPad Prism 5.0.3. Calculations were performed using MS-Excel version 2021. […]

[8] = Homo sapiens, MCF7; MCF-7, crystal violet assay, 48 h; read-out: IC50 ± SD, MCF-7
[9] = Homo sapiens, SK-OV-3; SKOV-3, crystal violet assay, 48 h; read-out: IC50 ± SD, SKOV-3
[10] = Homo sapiens; HeLa, crystal violet assay, 48 h; read-out: IC50 ± SD, HeLa
[11] = concentration and time not given
[12] = Homo sapiens, MCF7, 48 h, MCF-7, crystal violet assay, read-out: IC50 ± SD, MCF-7
[13] = Homo sapiens, SK-OV-3, 48 h, SKOV-3, crystal violet assay, read-out: IC50 ± SD, SKOV-3
[14] = Homo sapiens, HeLa, 48 h, HeLa, crystal violet assay, 48 h; read-out: IC50 ± SD, HeLa
[15] = MCF-7, crystal violet assay, 48 h; read-out: IC50 ± SD, MCF-7
[16] = MCF-7, SKOV-3, B16F10, LOVO, HeLa, read-out: IC50, range over all tested cancer cell lines
[17] = SKOV-3, crystal violet assay, 48 h; read-out: IC50 ± SD, SKOV-3
[18] = HeLa, crystal violet assay, 48 h; read-out: IC50 ± SD, HeLa

Compound	IC50 [1, 8] [µM]	IC50 ([2]; Homo sapiens) [µM]	IC50 ([3]; Mus musculus, B16-F10, 48 h) [µM]	IC50 ([4]; Homo sapiens) [µM]	IC50 [5, 9] [µM]	IC50 [6, 10] [µM]	Selectivity Index (SI) ([6]; SI = IC50HaCaT/IC50HeLa)	IC50 [1, 12] [µM]	IC50 [5, 13] [µM]	IC50 [6, 14] [µM]	Cytotoxicity in words [7]	further results
COc1cc([C@@H]2c3cc4c(cc3[C@H](O)[C@H]3COC(=O)[C@H]23)OCO4)cc(OC)c1OC [Compound 1, Podophyllotoxin]	0.0039 ± 0.0005	0.033 ± 0.0077	0.092 ± 0.05	0.0046 ± 0.0006	0.017 ± 0.0028	0.0089 ± 0.0003	0.52	–	–	–	–	Cells arrested in the G2/M phase (HeLa cells; [11]): approximately 90%
COc1cc([C@@H]2c3cc4c(cc3[C@@H](O[C@@H]3O[C@@H]5CO[C@@H](C)O[C@H]5[C@H](O)[C@H]3O)[C@H]3COC(=O)[C@H]23)OCO4)cc(OC)c1O [Compound 2, etoposide, reference compound]	–	2.48 ± 0.47	6.68 ± 2.32	1.32 ± 0.16	–	–	0.23	0.31 ± 0.017	3.15 ± 0.38	5.73 ± 1.48	–	–
COC(=O)C1C(c2nc3ccccc3s2)=Cc2cc3c(cc2C1c1cc(OC)c(OC)c(OC)c1)OCO3 (stereo not drawn) [Compound 7]	–	–	–	–	–	–	1.26	–	–	–	–	IC50 [1, 15]: 0.59 ± 0.05 µM; IC50 [7, 16]: 0.68 to 2.88 µM; IC50 [2]: 0.83 ± 0.08 µM; IC50 ([3]; 48 h): 1.78 ± 0.55 µM; IC50 [4]: 0.86 ± 0.05 µM; IC50 [5, 17]: 1.1 ± 0.13 µM; IC50 [6, 18]: 0.68 ± 0.05 µM; Cells arrested in the G2/M phase (HeLa cells; [11]): approximately 90%
COC(=O)[C@H]1C(c2nc3cc(C(F)(F)F)ccc3s2)=Cc2cc3c(cc2[C@H]1c1cc(OC)c(OC)c(OC)c1)OCO3 [Compound 8]	–	> 20	> 20	> 20	–	–	–	> 20	> 20	> 20	inactive	–
COC(=O)C1C(c2nc3cc(Cl)ccc3s2)=Cc2cc3c(cc2C1c1cc(OC)c(OC)c(OC)c1)OCO3 (stereo not drawn) [Compound 9]	2.02 ± 0.11	11.1 ± 2.55	> 20	13.2 ± 2.89	10.4 ± 0.73	1.81 ± 0.13	7.31	–	–	–	–	IC50 ([7]; read-out: IC50, range over HeLa and MCF-7): 1.81 to 2.02 µM
COC(=O)C1C(c2nc3ccccc3s2)=Cc2cc3c(cc2C1c1cc(OC)c(OC)c(OC)c1)OCO3 (stereo not drawn) [Compound 10]	–	–	–	–	–	–	–	–	–	–	no cytotoxicity	IC50 [1, 15]: > 20 µM; IC50 [2]: > 20 µM; IC50 ([3]; 48 h): > 20 µM; IC50 [4]: > 20 µM; IC50 [5, 17]: > 20 µM; IC50 [6, 18]: > 20 µM
COc1cc([C@H]2CC(c3nc4ccccc4s3)=Cc3cc4c(cc32)OCO4)cc(OC)c1OC [Compound 11]	–	2.88 ± 0.87	1.93 ± 0.25	1.9 ± 0.14	–	–	–	1.98 ± 0.49	1.79 ± 0.28	1.54 ± 0.24	–	IC50 [7, 16]: 0.68 to 2.88 µM; IC50 ([7]; read-out: IC50, range over all tested cell lines): 1.54 to 2.88 µM; Cells arrested in the G2/M phase (HeLa cells; higher concentrations, after 48 h of exposure): approximately 43%
COC(=O)c1c(-c2nc3ccccc3s2)cc2cc3c(cc2c1-c1cc(OC)c(OC)c(OC)c1)OCO3 [Compound 12]	–	> 20	> 20	> 20	–	–	–	> 20	> 20	> 20	no effect	–
COc1cc([C@@H]2c3cc4c(cc3C=C(c3nc5ccccc5s3)[C@@H]2CO)OCO4)cc(OC)c1OC [Compound 13]	> 20	> 20	> 20	> 20	> 20	> 20	–	–	–	–	no effect	–
COC(=O)[C@H]1C(c2nc3ccccc3s2)=Cc2cc(O)c(O)cc2[C@H]1c1cc(OC)c(O)c(OC)c1 [Compound 14]	–	11.7 ± 1.02	> 20	13.1 ± 1.75	–	–	<1	11.9 ± 1.75	15.3 ± 1.31	> 20	–	–
COC(=O)[C@H]1C(c2nc3ccccc3s2)=Cc2cc3c(cc2[C@H]1c1cc(OC)c(O)c(OC)c1)OCO3 [Compound 15]	3.44 ± 0.81	10.9 ± 0.95	3.76 ± 0.49	7.59 ± 0.76	3.73 ± 0.75	2.49 ± 0.25	3.05	–	–	–	–	IC50 ([7]; read-out: IC50, range over all the cell lines tested, except for LoVo cells): 2.49 to 3.76 µM
